Experimental data: ChEMBL document CHEMBL1133313, “Syntheses and antifungal activity of pseudomycin side-chain analogues. Part 1” (2000)
≈ marks a conversion by molar mass, not a printed value. Positions of bridges follow the written chain, without caps; N, C: chain ends. Non-standard residues stand in square brackets, D forms with d. Residues, ends and D or L forms follow the SMILES beside them. *: point of attachment. Tetradecanoyl(3R-OH) = CCCCCCCCCCC[C@@H](O)CC(=O)*; Asp(3S-OH) = N[C@H](C(=O)O)[C@H](O)C(=O)O; Thr(4-Cl) = N[C@H](C(=O)O)[C@H](O)CCl; aThr = C[C@H](O)[C@H](N)C(=O)O; dDab = NCC[C@@H](N)C(=O)O; Dab = NCC[C@H](N)C(=O)O; Dhb = C/C=C(\N)C(=O)O

Key:
Type in all cases: functional
[1] = tested on: Aspergillus fumigatus; assay: Lowest concentration required to inhibit the growth of Aspergillus fumigatus
[2] = tested on: Candida albicans; assay: Lowest concentration required to inhibit 90-100% of the visible growth of Candida albicans when compared to controls
[3] = tested on: Candida albicans; assay: Lowest concentration required to inhibit 90-100% of the visible growth of Candida albicans when compared to control; Range is 0.312-0.625

## C/C=C1\NC(=O)[C@H]([C@H](C)O)NC(=O)[C@@H](CCN)NC(=O)[C@@H](CCCCN)NC(=O)[C@@H](CC(=O)O)NC(=O)[C@@H](CCN)NC(=O)[C@@H](NC(=O)C[C@@H](O)c2cccc(CCCCCCCC)c2)COC(=O)[C@@H]([C@H](O)CCl)NC(=O)[C@H]([C@H](O)C(=O)O)NC1=O
[1]
  MIC: > 20 µg/mL
[2]
  MIC: > 20 µg/mL

## C/C=C1\NC(=O)[C@H]([C@H](C)O)NC(=O)[C@@H](CCN)NC(=O)[C@@H](CCCCN)NC(=O)[C@@H](CC(=O)O)NC(=O)[C@@H](CCN)NC(=O)[C@@H](NC(=O)C[C@H](O)c2cccc(CCCCCCCCCCCC)c2)COC(=O)[C@@H]([C@H](O)CCl)NC(=O)[C@H]([C@H](O)C(=O)O)NC1=O
[1]
  MIC: 2.5 µg/mL (≈ 1.93 µM)
[2]
  MIC: 1.25 µg/mL (≈ 0.963 µM)

## C/C=C1\NC(=O)[C@H]([C@H](C)O)NC(=O)[C@@H](CCN)NC(=O)[C@@H](CCCCN)NC(=O)[C@@H](CC(=O)O)NC(=O)[C@@H](CCN)NC(=O)[C@@H](NC(=O)C[C@@H](O)c2cccc(CCCCCCCCCCCC)c2)COC(=O)[C@@H]([C@H](O)CCl)NC(=O)[C@H]([C@H](O)C(=O)O)NC1=O
[1]
  MIC: > 20 µg/mL
[2]
  MIC: 5 µg/mL (≈ 3.85 µM)

## C/C=C1\NC(=O)[C@H]([C@H](C)O)NC(=O)[C@@H](CCN)NC(=O)[C@@H](CCCCN)NC(=O)[C@@H](CC(=O)O)NC(=O)[C@@H](CCN)NC(=O)[C@@H](NC(=O)C[C@@H](O)c2cccc(OCCCCCCCCCCC)c2)COC(=O)[C@@H]([C@H](O)CCl)NC(=O)[C@H]([C@H](O)C(=O)O)NC1=O
[1]
  MIC: > 20 µg/mL
[2]
  MIC: 10 µg/mL (≈ 7.69 µM)

## C/C=C1\NC(=O)[C@H]([C@H](C)O)NC(=O)[C@@H](CCN)NC(=O)[C@@H](CCCCN)NC(=O)[C@@H](CC(=O)O)NC(=O)[C@@H](CCN)NC(=O)[C@@H](NC(=O)C[C@@H](O)CCc2cccc(OCCCCC)c2)COC(=O)[C@@H]([C@H](O)CCl)NC(=O)[C@H]([C@H](O)C(=O)O)NC1=O
[1]
  MIC: > 20 µg/mL
[2]
  MIC: > 20 µg/mL

## C/C=C1\NC(=O)[C@H]([C@H](C)O)NC(=O)[C@@H](CCN)NC(=O)[C@@H](CCCCN)NC(=O)[C@@H](CC(=O)O)NC(=O)[C@@H](CCN)NC(=O)[C@@H](NC(=O)C[C@H](O)CCc2cccc(OCCCCC)c2)COC(=O)[C@@H]([C@H](O)CCl)NC(=O)[C@H]([C@H](O)C(=O)O)NC1=O
[1]
  MIC: > 20 µg/mL
[2]
  MIC: > 20 µg/mL

## C/C=C1\NC(=O)[C@H]([C@@H](C)O)NC(=O)[C@@H](CCN)NC(=O)[C@@H](CCCCN)NC(=O)[C@@H](CC(=O)O)NC(=O)[C@@H](CCN)NC(=O)[C@@H](NC(=O)C[C@H](O)c2cccc(OCCCCCCCCCCC)c2)COC(=O)[C@@H]([C@H](O)CCl)NC(=O)[C@H]([C@H](O)C(=O)O)NC1=O
[1]
  MIC: > 20 µg/mL
[2]
  MIC: 0.625 µg/mL (≈ 0.481 µM)

## C/C=C1\NC(=O)[C@H]([C@@H](C)O)NC(=O)[C@@H](CCN)NC(=O)[C@@H](CCCCN)NC(=O)[C@@H](CC(=O)O)NC(=O)[C@@H](CCN)NC(=O)[C@@H](NC(=O)C[C@H](O)c2cccc(CCCCCCCC)c2)COC(=O)[C@@H]([C@H](O)CCl)NC(=O)[C@H]([C@H](O)C(=O)O)NC1=O
[1]
  MIC: > 20 µg/mL
[2]
  MIC: 5 µg/mL (≈ 4.03 µM)

## C/C=C1\NC(=O)[C@H]([C@@H](C)O)NC(=O)[C@@H](CCN)NC(=O)[C@@H](CCCCN)NC(=O)[C@@H](CC(=O)O)NC(=O)[C@@H](CCN)NC(=O)[C@@H](NC(=O)CC(O)Cc2cccc(OCCCCCC)c2)COC(=O)[C@@H]([C@H](O)CCl)NC(=O)[C@H]([C@H](O)C(=O)O)NC1=O (stereo not given in full)
[1]
  MIC: > 20 µg/mL
[2]
  MIC: > 20 µg/mL

## C/C=C1\NC(=O)[C@H]([C@@H](C)O)NC(=O)[C@@H](CCN)NC(=O)[C@@H](CCCCN)NC(=O)[C@@H](CC(=O)O)NC(=O)[C@@H](CCN)NC(=O)[C@@H](NC(=O)CC(O)CCc2cccc(OCCCCCCCCC)c2)COC(=O)[C@@H]([C@H](O)CCl)NC(=O)[C@H]([C@H](O)C(=O)O)NC1=O (stereo not given in full)
[1]
  MIC: > 20 µg/mL
[2]
  MIC: 20 µg/mL (≈ 15.4 µM)

## C/C=C1\NC(=O)[C@H]([C@@H](C)O)NC(=O)[C@@H](CCN)NC(=O)[C@@H](CCCCN)NC(=O)[C@@H](CC(=O)O)NC(=O)[C@@H](CCN)NC(=O)[C@@H](NC(=O)CC(O)CCc2cccc(OCCCCCCC)c2)COC(=O)[C@@H]([C@H](O)CCl)NC(=O)[C@H]([C@H](O)C(=O)O)NC1=O (stereo not given in full)
[1]
  MIC: > 20 µg/mL
[2]
  MIC: 10 µg/mL (≈ 7.86 µM)

## C/C=C1\NC(=O)[C@H]([C@@H](C)O)NC(=O)[C@@H](CCN)NC(=O)[C@@H](CCCCN)NC(=O)[C@@H](CC(=O)O)NC(=O)[C@@H](CCN)NC(=O)[C@@H](NC(=O)CC(O)Cc2cccc(OCCCCCCCCCC)c2)COC(=O)[C@@H]([C@H](O)CCl)NC(=O)[C@H]([C@H](O)C(=O)O)NC1=O (stereo not given in full)
[1]
  MIC: > 20 µg/mL
[2]
  MIC: 15 µg/mL (≈ 11.5 µM)

## C/C=C1\NC(=O)[C@H]([C@@H](C)O)NC(=O)[C@@H](CCN)NC(=O)[C@@H](CCCCN)NC(=O)[C@@H](CC(=O)O)NC(=O)[C@@H](CCN)NC(=O)[C@@H](NC(=O)CC(O)Cc2cccc(OCCCCCCCC)c2)COC(=O)[C@@H]([C@H](O)CCl)NC(=O)[C@H]([C@H](O)C(=O)O)NC1=O (stereo not given in full)
[1]
  MIC: > 20 µg/mL
[2]
  MIC: > 20 µg/mL

## C/C=C1\NC(=O)[C@H]([C@@H](C)O)NC(=O)[C@@H](CCN)NC(=O)[C@@H](CCCCN)NC(=O)[C@@H](CC(=O)O)NC(=O)[C@@H](CCN)NC(=O)[C@@H](NC(=O)CC(O)CCc2cccc(OCCCCC)c2)COC(=O)[C@@H]([C@H](O)CCl)NC(=O)[C@H]([C@H](O)C(=O)O)NC1=O (stereo not given in full)
[1]
  MIC: > 20 µg/mL
[2]
  MIC: > 20 µg/mL

## C/C=C1\NC(=O)[C@H]([C@H](C)O)NC(=O)[C@H](CCN)NC(=O)[C@H](CCCCN)NC(=O)[C@H](CC(=O)O)NC(=O)[C@@H](CCN)NC(=O)[C@@H](NC(=O)C[C@H](O)CCCCCCCCCCC)COC(=O)[C@H]([C@H](O)CCl)NC(=O)[C@H]([C@H](O)C(=O)O)NC1=O ({Tetradecanoyl(3R-OH)}-S[dDab]DK[Dab][aThr][Dhb][Asp(3S-OH)][Thr(4-Cl)]; ester 1-C)
[3]
  MIC: 0.625 µg/mL (≈ 0.517 µM)
[1]
  MIC: > 20 µg/mL
